Data from US20250328351A1, “CARBONIC ANHYDRASE INHIBITORS AND ANTIBIOTICS AGAINST MULTIDRUG RESISTANT BACTERIA” (Purdue Research Foundation, priority 2018, published 2025).
In brackets after ≈: the same amount, converted by molar mass. Where two headings read alike, the source gives them in different places.

Tests used:
gut microbiota = system: gut microbiota; parameters: species or system C57BL/6 mice; settings: mouse, in vivo, po, 10 mg/kg
Description: CAIs had no major impact on microbiota composition. An extremely promising and innovative feature of CAIs is their narrow spectrum of activity and their ability to decolonize VRE without harming the microbiome. […] To characterize the impact of CAIs administration on the composition of the gut microbiota we performed the following assay6. Female 12-week-old C57BL/6 mice (n=5 mice per group) were exposed to CAIs by oral gavage for 10 days (10 mg/kg daily). Twenty-four hours after last dose, mice were euthanized and cecal and colon contents were harvested. The microbiome was characterized using 16S rDNA gene sequencing. The microbiotas from treated mice were compared to those from a group of control mice. […] However, at the phylum level, we observed decrease in Firmicutes in CAIs treatment groups and likely due to decrease of enterococci as enterococcus is a large genus of the phylum Firmicutes. The Verrucomicrobia and Bacteroidetes remain constant while other phyla increase to fill the remaining percentage from Firmicute loss. […] Indeed, the use of traditional antibiotics can increase the selective pressure and contribute to the selection of other multi-drug-resistant organisms (Kofteridis D. et al., Int J Infect Dis 2009, 13, e313-315).

[1] = system: Enterococcus faecalis S613 HM-334; assay: MIC, broth microdilution (CLSI); format: cell-based; settings: Enterococcus faecalis
Description: (§1) The minimum inhibitory concentrations (MICs) of the compounds and control drugs were determined using the broth microdilution method, according to guidelines outlined by the Clinical and Laboratory Standards Institute (CLSI). Enterococci strains were grown aerobically overnight on tryptone soya agar plates at 37° C., afterwards a bacterial solution equivalent to 0.5 McFarland standard was prepared and diluted in tryptone soy broth (TSB) to achieve a bacterial concentration of about 5×10^5 CFU/mL and seeded in 96-well well plates. Compounds and control drugs were added in the first row of the 96-well plates and serially diluted along the plates. Plates were then incubated aerobically at 37° C. for 18-20 hours. MICs reported in Table 1 are the minimum concentration of the compounds/control drugs that could inhibit completely the visual growth of the bacteria.
(§2) The minimum inhibitory concentrations (MICs) of CAIs were tested against clinical isolates of vancomycin sensitive and vancomycin resistant Enterococci strains as per the guidelines provided by the Clinical and Laboratory Standards Institute (CLSI). The selected strains of Enterococci were streaked on Tryptic Soy Agar (TSA) plates and let grow for 24 hours at 37° C. Afterwards, a bacterial solution equivalent to 0.5 McFarland standard was prepared and diluted in tryptone soy broth (TSB) or brain heart infusion broth (BHIB) to achieve a bacterial concentration of about 5×10^5 CFU/mL and seeded in 96-well well plates. Compounds and control drugs were added in the first row of the 96-well plates and serially diluted along the plates. Plates were then incubated aerobically at 37° C. for 18-20 hours. MICs reported in Table 5 are the minimum concentration of the compounds/control drugs that could inhibit completely the visual growth of the bacteria.
The minimum inhibitory concentrations (MICs) of CAIs were tested against vancomycin resistant Enterococcus faecalis—S613 HM 334 strain as per the guidelines provided by the Clinical and Laboratory Standards Institute (CLSI). The selected strain was streaked on Tryptic Soy Agar (TSA) plate and let grow for 24 hours at 37° C. […] Compounds and control drugs were added in the first row of the 96-well plates and serially diluted along the plates. Plates were then incubated aerobically at 37° C. for 18-20 hours. MICs reported in table (6) are the minimum concentration of the compounds/control drugs that could inhibit completely the visual growth of the bacteria.

[2] = system: Enterococcus fecalis Strain MMH594 - NR31975; assay: microbe, parasite or virus in culture; format: cell-based; settings: Table 7; TSB
Description: as §1

[3] = system: Enterococcus fecalis Strain SF 28073 - NR31972; assay: MIC, broth microdilution (CLSI); format: cell-based; settings: Table 7; TSB
Description: as §1

[4] = system: Enterococcus faecium Patient #3-1 NR-31912; assay: MIC, broth microdilution (CLSI); format: cell-based; settings: Table 7; TSB
Description: as §1

[5] = system: Enterococcus fecalis Strain SF24413 NR31971; assay: MIC, broth microdilution (CLSI); format: cell-based; settings: Table 7; TSB
Description: as §1

[6] = system: Enterococcus fecalis Strain SF 24397 NR31970; assay: MIC, broth microdilution (CLSI); format: cell-based
Description: as §1, §2

[7] = system: Bacteroides fragilis CL07T00C01 HM-709; assay: MIC against human normal gut microbiota; format: cell-based; settings: 48 h
Description: (§3) Three different bacterial strains were used in this experiment; Bifidobacterium (anaerobic Gram positive bacteria), Bacteroides (anaerobic Gram negative bacteria) and Lactobacillus (microaerophilic Gram positive bacteria). Bifidobacterium and Bacteroides were first grown for 48 hours at 37° C., anaerobically using brain heart infusion supplemented (BHIS) agar (Brain heart infusion agar supplemented with hemin, vitamin K and L-cysteine). Lactobacillus was cultivated on MRS agar and incubated in presence of 5% CO2 for 48 hours at 37° C. Each bacterium was suspended in phosphate buffered saline (PBS) to produce a suspension with optical density that matches 0.5 McFarland standard and diluted in brain heart infusion supplemented broth (for Bifidobacterium and Bacteroides) or in MRS broth (for Lactobacillus) to achieve bacterial concentration of approximately 5×10^5 CFU/ml. Bacteria were then seeded in 96-well plates containing serial dilutions of the compounds and incubated as mentioned previously for 48 hours.

[8] = system: Bacteroides dorei CL02T12C06 HM-719; assay: MIC against human normal gut microbiota; format: cell-based; settings: Phocaeicola dorei, 48 h
Description: as §3

[9] = system: Bifidobacterium breve JCP7499 HM 1120; assay: MIC against human normal gut microbiota; format: cell-based; settings: JCP7499HM1120, 48 h
Description: as §3

[10] = system: vancomycin-resistant E. faecium; assay: Mouse model of GI colonization by VRE; format: in vivo, C57BL/6 mice; settings: 10 mg/kg oral gavage for 8 days; feces as early as 3rd day
From the text: Feasibility in vivo study: AZM reduces VRE load in the intestines and faeces. The promising feature, and the specific and potent antimicrobial activity of CAIs, prompted us to evaluate the in vivo efficacy of AZM in our established mouse model of GI colonization by enterococci with features that mimic the antibiotic-induced enterococcal expansion observed in humans (Mohammad, H. et al., Int J Antimicrob Agents 2018, 51, 897-904; Abdelkhalek, A, et al., PLoS One 2018, 13, e0199710). We tested AZM (two clinical doses 10 and 20 mg/kg) in female 12-week-old C57BL/6 mice (n=5 mice per group) that were sensitized with ampicillin ([…] in drinking water) for 7 days to reduce the microbiota present in the gastrointestinal tract and colonized with 10^8 CFU/mL of vancomycin-resistant E. faecium.
We thought that the rapid absorption of AZM from the gastrointestinal tract would limit their exposure time to VRE present in the gastrointestinal tract.
Mice were treated for 8 days with 10 mg/kg of drugs by oral gavage.

[11] = format: in vivo; settings: 200 mg/kg twice daily (400 mg/kg daily) for three days

For CCN[C@H]1C[C@H](C)S(=O)(=O)c2sc(S(N)(=O)=O)cc21 [Dorzolamide], the “taxonomic structure and composition of microbiota” value (gut microbiota) was “no major shift or change”, the MIC ([1]; S613HM334, Table 5, BHIB, read-out: MIC) was greater than 128 µg/mL and the MIC ([1]; S613HM334, Table 5, TSB, read-out: MIC) was 8 µg/mL (≈ 24.7 µM). It also gave an MIC ([1]; S613HM334, Table 6, TSB in presence of 4% human serum albumin, read-out: MIC) greater than 256 µg/mL.
In the case of CN[C@H](CC(C)C)C(=O)N[C@H]1C(=O)N[C@@H](CC(N)=O)C(=O)N[C@H]2C(=O)N[C@H]3C(=O)N[C@H](C(=O)N[C@H](C(=O)O)c4cc(O)cc(O)c4-c4cc3ccc4O)[C@H](O)c3ccc(c(Cl)c3)Oc3cc2cc(c3O[C@@H]2O[C@H](CO)[C@@H](O)[C@H](O)[C@H]2O[C@H]2C[C@](C)(N)[C@H](O)[C@H](C)O2)Oc2ccc(cc2Cl)[C@H]1O [Vancomycin, reference compound], the MIC [2] is reported as 2 µg/mL (≈ 1.38 µM), the MIC [3] is reported as greater than 64 µg/mL and the MIC [4] is reported as greater than 64 µg/mL. For the same molecule, the MIC [5] was 32 µg/mL (≈ 22.1 µM), the MIC ([1]; S613HM334, Table 1, TSB) was greater than 64 µg/mL and the MIC ([1]; S613HM334, Table 5, BHIB) was greater than 128 µg/mL. The MIC ([1]; S613HM334, Table 5, TSB) was greater than 128 µg/mL, the MIC ([1]; S613HM334, Table 7, TSB) was greater than 64 µg/mL and the MIC ([6]; Table 5, BHIB) was 2 µg/mL (≈ 1.38 µM). The MIC ([6]; Table 5, TSB) was 2 µg/mL (≈ 1.38 µM), the MIC ([6]; Table 7, TSB) was 2 µg/mL (≈ 1.38 µM) and the MIC [7] was 64 µg/mL (≈ 44.2 µM). The MIC [8] was 64 µg/mL (≈ 44.2 µM) and the MIC [9] was 8 µg/mL (≈ 5.52 µM).
For NS(=O)(=O)c1nnc(NCc2ccccc2C(F)(F)F)s1 [analog 8], the “reduction of VRE in the feces, cecum and ileum compared with AZM and linezolid” value [10] was “superior to AZM and linezolid” and the survival [11] was “all the mice survived”.
